Reference: publication PMC5704756, “Hydrolysis, polarity, and conformational impact of C-terminal partially fluorinated ethyl esters in peptide models” (Beilstein Journal of Organic Chemistry, 2017)
Where “and” joins values, the source holds several entries; their conditions need not be identical. Equal entries are not always repeated. Where two headings read alike, the source gives them in different places. Peptide text beside a SMILES is read from it. * marks the point of attachment. X1 = FC(F)CO*

Tests used:
[1] = Hydrolysis of C-terminal 2,2-difluoroethyl esters of oligopeptides in buffered deuterium oxide by 19F NMR; type: physicochemical; settings: for τ½ of ester hydrolysis (value outside brackets) / τ½ of ester hydrolysis (value in brackets, alternative kinetic model): buffered deuterium oxide, pH 7.0, 298 K; for τ½ of ester hydrolysis (value outside brackets): Equation 7 (zero order), first (zero) order model; for τ½ of ester hydrolysis (value in brackets, alternative kinetic model): first (zero) order kinetic model; for charge-induced hydrolysis acceleration factor vs 8b: pH 7, 9b, 10b vs 8b
Source text: Finally, we tested hydrolytic stability in esterified peptides 8b, 9b and 10b by observing hydrolysis of the ester using ^19F NMR in buffered deuterium oxide (pH 7). We expected pseudo-first order kinetics as for the hydrolysis of esters 1–5 at pH 11. Nonetheless, for the peptide esters 8b, 9b and 10b, the experimental decay (Figure 7) of the ester concentration resembled pseudo-zero order kinetics, which was also observed for another amino acid ester hydrolysis not shown here.
Circular dichroism spectra were recorded in a 1 mm quartz cell at 298 K in methanol (HPLC grade) or aqueous potassium phosphate buffer (50 mM, pH 7.01 at 297 K). The peptide concentration was 100 μM as determined gravimetrically. The mean residue absorption difference Δε was calculated assuming 6 residues for peptides 8a–c, 10a–c and 3 residues for peptides 9a–c. Hydrolysis was measured in deuterium oxide solution of a 150 mM potassium phosphate buffer. The buffer pH 7.01 was adjusted in water at 298 K. It was then lyophilized, then dissolved in deuterium oxide. The peptides were dissolved in the buffer, and the resulting samples were kept at 298 ± 2 K, while the ^19F NMR measurements were conducted at several time points. The starting concentrations of the analytes were 8 mM for 8b, 5 mM for 9b and 2.5 mM for 10b. The half-life was calculated using the first (zero) order kinetic model.

[2] = Amide rotational thermodynamics and kinetics (trans/cis isomerism) by NMR / EXSY; type: physicochemical; settings: for Ktrans/cis in C6D6: C6D6 (ε 2.27); for Ktrans/cis in C6D6 / Ktrans/cis in CD2Cl2 / Ktrans/cis in CD3CN / Ktrans/cis in CD3OD / Ktrans/cis in CDCl3 / Ktrans/cis in D2O: 298 K; for Ktrans/cis in C6D6 / Ktrans/cis in D2O: analyte 50 ± 10 mM; for k∙10^3 cis→trans in C6D6 / k∙10^3 trans→cis in C6D6: C6D6, 298 K; for k∙10^3 cis→trans in C6D6 / k∙10^3 trans→cis in C6D6 / k∙10^3 cis→trans in D2O / k∙10^3 trans→cis in D2O: EXSY NMR, amide rotation, value is k∙10^3; for Ktrans/cis in CD2Cl2: CD2Cl2 (ε 8.93); for Ktrans/cis in CD3OD: CD3OD (ε 32.7); for Ktrans/cis in CDCl3: CDCl3 (ε 4.81); for Ktrans/cis in D2O: D2O (ε 80.1), 1H/19F NMR; for k∙10^3 cis→trans in D2O / k∙10^3 trans→cis in D2O: 310 K
Source text: For 1–5, we found the trans/cis ratios ≈ 5 for all five esters when measured in aqueous medium; the kinetic parameters of the amide rotation were also nearly identical (Table 2). We then noticed that the trans/cis ratios measured for the fluorine-labeled esters 3–5 in nonpolar solvents (such as benzene) were systematically higher relative to the reference compounds 1 and 2. We tested the relative increase in the trans-amide preference ΔΔG as a function of solvent (Equation 4) and found a dependence of this parameter on the dielectric constant, as would be expected from an electrostatic interaction between the polar alkoxy group and the amide moiety (Figure 4).
The amide rotational thermodynamic and kinetic measurements were performed by NMR as described in [50, 68]. The equilibrium ratio between the rotameric states was obtained from the ^1H, ^19F and ^19F{^1H} (inverse-gated decoupling) spectra at 298 K by integration. The kinetics was measured in ^1H and/or ^19F{^1H} z-cross-relaxation experiments at either 310 K (for deuterium oxide samples) or 298 K (for benzene samples). The Jαβ-coupling values were obtained by visual inspection of the α-CH resonances in the ^1H NMR spectra, and the accuracy was defined by the length of the time domain spectrum at approximately 0.3 Hz. The semi-empirical calculations were performed by using the PM6 algorithm from the MOPAC package. DFT geometry optimization of the 5 amide rotamers was performed using B88-PW91 GGA with the DZVP basis set.

[3] = Partitioning between octan-1-ol and water (NMR detection); type: physicochemical; settings: for logP at 24 h: 298 K, 24 hours partitioning, NMR; for ΔlogP vs 4: relative to compound 4
Description: To characterize the lipophilicity, esters 1–5 were subjected to 24 hours of partitioning between octan-1-ol and water at 298 K. The resulting partition is illustrated in Figure 3. […] The lipophilicity of 2,2-difluoroethyl derivative 4 is nearly identical to that of parent ethyl ester 2, and the relative difference in the logP from the increase (5 vs 4, ΔlogP = +0.53 ± 0.13) and decrease (3 vs 4, ΔlogP = −0.45 ± 0.13) in the number of fluorine atoms are equivalent to one methyl group difference (2 vs 1, ΔlogP = +0.44 ± 0.08). The amplitude of the change is similar to that reported recently for the corresponding fluorinated ethanols. Importantly, C-terminal esterification maintains a much higher lipophilicity compared with the C-terminal amide 7 (Table 1).
To 4–5 mg analyte, octan-1-ol (1.00 mL) and deionized water (1.00 mL) were added. The mixture was shaken gently at ambient temperature (298 ± 2 K) for 24 hours. Each phase (200 μL) was sampled using identical NMR tubes, and acetonitrile-d3 (300 μL) was added to each sample. The NMR measurements were performed by ^1H or ^19F detection at 298 K using calibrated 90-degree pulses and one-scan experiments in order to ensure complete pre-relaxation. The same acquisition parameters were used for the octan-1-ol and water samples; for processing, only the zero phase was adjusted. The spectra were baseline corrected, and equivalent resonances were integrated. The ratio between the signal intensities was considered as the partitioning constant. The partitioning experiments were performed in triplicate. Subsequent addition of water and octan-1-ol was performed in forward and reverse manner, and the resulting partitioning constants were identical within experimental error.

[4] = Hydrolytic stability of esters 1–5 in aqueous potassium phosphate buffer, monitored by 1H and 19F NMR; type: physicochemical; settings: for τ½, min (aq buffer): ester hydrolysis; for half-life at 0.5 mM: aqueous potassium phosphate buffer
Source text: The kinetic stability of the ester linkage in the aqueous medium is of critical importance, as it further defines the time window for the reactions with the corresponding esters under the biologically relevant conditions of aqueous buffers. Hydrolysis of the C-terminal esters has been fairly well described in the literature, indicating the hydrolysis occurs via a pseudo-first order reaction in a buffered medium assuming that [HO^−] is constant (Equations 1–3): […]
Next, we determined the half-life values following the above mentioned kinetic model for esters 1–5 in aqueous medium at pH 11 and 298 K (Figure 2). […] For the subsequent fluorine atoms, the hydrolysis rate increased by a factor of 3–4 for each appended fluorine atom. […] Extrapolation to pH 8.0 gives a value of 107 ± 28 hours. (This procedure requires multiplication by 1000.) We experimentally determined the half-life of 5 at pH 8 to be 102 ± 2 hours, which agrees well with the extrapolation. The mutual consistency of the values determined with different kinetic modes (minutes at pH 11, days at pH 8) provides a good indication of their accuracy.
Aqueous potassium phosphate buffer (100 mM) at pH 11.0 or 8.0 was mixed with 1:10 (v/v) deuterium oxide to give 550 μL of 91 mM buffer. The analyte 1–5 was added from a 200 mM stock solution in deuterium oxide to give 0.5 mM analyte. The first NMR spectra were collected within 4 min following addition of the analyte. The monitoring was continued by recording ^1H and ^19F NMR spectra at regular time points until >50% hydrolysis. Ambient temperature was maintained at 298 ± 1 K. The decay of the integral intensity of the analyte was quantified by integration. Plotting the logarithm of the intensity versus time delivered the kinetic constant, which was converted to the half-life time (squared correlation coefficient > 0.90). The experiments were performed in triplicate.

[5] = design: method as in doi:10.1002/ijch.201600106; settings: 310 K, amide rotation, value is k∙10^3, ref [69]; cited from earlier work
[6] = pH 11.0, 298 K, pseudo-first order

Row | τ½ of ester hydrolysis (value in brackets, alternative kinetic model) [1] [days] | Ktrans/cis in C6D6 [2] | Ktrans/cis in CD2Cl2 [2] | Ktrans/cis in CD3CN [2] | Ktrans/cis in CD3OD [2] | Ktrans/cis in CDCl3 [2] | Ktrans/cis in D2O [2] | τ½, min (aq buffer) [4, 6] | logP at 24 h ([3]; octan-1-ol/water) | Structure (SMILES) | k∙10^3 cis→trans in C6D6 [2] [s^−1] | k∙10^3 trans→cis in C6D6 [2] [s^−1] | k∙10^3 cis→trans in D2O [2] [s^−1] | k∙10^3 trans→cis in D2O [2] [s^−1] | further results
1 | 4.5 ± 0.5 | – | – | – | – | – | – | – | – | CC(=O)N[C@@H](CCCCN)C(=O)N[C@@H](CCCCN)C(=O)N[C@@H](CCCCN)C(=O)OCC(F)F [peptide 9b, Ac(Lys)3OCH2CHF2∙3HCl] | – | – | – | – | τ½ of ester hydrolysis (value outside brackets) [1]: 5.0 ± 0.3 days and 5.0 ± 0.5 days; charge-induced hydrolysis acceleration factor vs 8b [1]: ≈ 30
2 | – | – | – | – | – | – | – | – | -1.57 ± 0.1 | CC(=O)N1CCC[C@H]1C(N)=O [compound 7, reference compound] | – | – | – | – | –
3 | – | 5.10 ± 0.10 | 4.18±0.03 | 4.08±0.04 | 3.78±0.03 | 3.84±0.04 | 4.94 ± 0.05 | 224 ± 20 (pH 11.0) min | -0.44 ± 0.05 | COC(=O)C1CCCN1C(C)=O (stereo not drawn) [compound 1, Methyl N-acetylprolinate] | 342 ± 10 | 67 ± 2 | – | – | k∙10^3 cis→trans in D2O [5]: 33 ± 2^c s^−1; k∙10^3 trans→cis in D2O [5]: 7.0 ± 0.5^c s^−1
4 | 3.7 ± 0.3 | – | – | – | – | – | – | – | – | CC(=O)N[C@@H](CCCCN)C(=O)N[C@@H](CCCCN)C(=O)N[C@@H](CCCCN)C(=O)N[C@@H](CCCCN)C(=O)N[C@@H](CCCCN)C(=O)N[C@@H](CCCCN)C(=O)OCC(F)F [peptide 10b, Ac(Lys)6OCH2CHF2∙6HCl] | – | – | – | – | τ½ of ester hydrolysis (value outside brackets) [1]: 4.0 ± 0.3 days; charge-induced hydrolysis acceleration factor vs 8b [1]: ≈ 30
5 | – | 9.06 ± 0.26 | 6.57±0.14 | 4.85±0.07 | 4.12±0.03 | 6.29±0.22 | 4.95 ± 0.05 | 19.7 ± 2.5 (pH 11.0) min | 0.02 | CC(=O)N1CCC[C@H]1C(=O)OCC(F)F [compound 4, 2,2-Difluoroethyl N-acetylprolinate] | 430 ± 17 | 47 ± 2 | 32 ± 4 | 7 ± 1 | half-life at 0.5 mM ([4]; pH 7, extrapolated from pH 11 value, read-out: half-life extrapolated to pH 7.0 (converted)): 3290 h
6 | – | 10.04 ± 0.15 | 7.07±0.11 | 5.65±0.05 | 4.49±0.05 | 6.65±0.18 | 5.48 ± 0.14 | 6.4 ± 1.7 min | 0.55 | CC(=O)N1CCC[C@H]1C(=O)OCC(F)(F)F [compound 5, 2,2,2-Trifluoroethyl N-acetylprolinate] | 477 ± 13 | 48 ± 2 | 35 ± 5 | 6 ± 1 | ΔlogP vs 4 ([3]; octan-1-ol/water): +0.53 ± 0.13; half-life at 0.5 mM ([4]; pH 8, extrapolated from pH 11 value (multiplication by 1000), read-out: half-life, extrapolation to pH 8.0 (converted)): 107 ± 28 h; half-life at 0.5 mM ([4]; pH 8, pH 8, 298 K, read-out: half-life at pH 8, experimentally determined (converted)): 102 ± 2 h; τ½, min (aq buffer) ([4]; pH 8.0, 298 K): 6112 ± 70 min
7 | – | 4.67 ± 0.03 | 3.52±0.03 | 3.58±0.04 | 3.49±0.04 | 3.20±0.04 | 4.60 ± 0.08 | 603 ± 58 (pH 11.0) min | 0 | CCOC(=O)C1CCCN1C(C)=O (stereo not drawn) [compound 2, Ethyl N-acetylprolinate] | 309 ± 14 | 67 ± 2 | 20 ± 5 | 6 ± 1 | ΔlogP vs 1 ([3]; octan-1-ol/water, relative to compound 1): +0.44 ± 0.08
8 | 139 ± 20 | – | – | – | – | – | – | – | – | CC(=O)N1CCC[C@H]1C(=O)N1CCC[C@H]1C(=O)N1CCC[C@H]1C(=O)N1CCC[C@H]1C(=O)N1CCC[C@H]1C(=O)N1CCC[C@H]1C(=O)OCC(F)F [peptide 8b, Ac(Pro)6OCH2CHF2] (Ac-PPPPPP-X1) | – | – | – | – | –

Row | Structure (SMILES) | τ½ of ester hydrolysis (value in brackets, alternative kinetic model) [1] [days] | Ktrans/cis in C6D6 [2] | Ktrans/cis in CD2Cl2 [2] | Ktrans/cis in CD3CN [2] | Ktrans/cis in CD3OD [2] | Ktrans/cis in CDCl3 [2] | Ktrans/cis in D2O [2] | τ½, min (aq buffer) [4, 6] | logP at 24 h ([3]; octan-1-ol/water) | k∙10^3 cis→trans in C6D6 [2] [s^−1] | k∙10^3 trans→cis in C6D6 [2] [s^−1] | k∙10^3 cis→trans in D2O [2] [s^−1] | k∙10^3 trans→cis in D2O [2] [s^−1] | further results
9 | CC(=O)N1CCC[C@H]1C(=O)OCCF [compound 3, 2-Fluoroethyl N-acetylprolinate] | – | 6.80 ± 0.04 | 4.77±0.10 | 4.12±0.17 | 3.61±0.03 | 4.44±0.20 | 4.74 ± 0.04 | 80 ± 14 (pH 11.0) min | – | 348 ± 11 | 52 ± 2 | 30 ± 2 | 7 ± 1 | logP at 24 h [3]: -0.43 ± 0.07; ΔlogP vs 4 ([3]; octan-1-ol/water): −0.45 ± 0.13
